# In ChEMBL document CHEMBL4043149, “Beneficial effects of a medicinal herb, Cirsium japonicum var. maackii, extract and its major component, cirsimaritin on breast cancer metastasis in MDA-MB-231 breast cancer cells” (Bioorg Med Chem Lett, 2017):
# Calls of active or inactive are those of the source. The rule behind the calls is not given here.
# Assays:
# MDA-MB-231 [1] = experiment: Antimetastatic activity against human MDA-MB-231 cells assessed as reduction in cell viability at 6.25 uM after 24 hrs by MTT assay relative to control; assay type: functional
# HUVEC [2] = experiment: Antiangiogenic activity in HUVEC assessed as inhibition of vascular endothelial tube formation at 6.25 uM after 24 hrs by matrigel assay relative to control; assay type: functional; conditions: Homo sapiens
# [3] = Cytotoxicity against HUVEC assessed as cell viability at 100 uM after 24 hrs by MTT assay; assay type: cell-based; conditions: human, HUVEC cells; read-out: Activity
# Homo sapiens [4] = organism: Homo sapiens; experiment: Inhibition of ERK phosphorylation in human MDA-MB-231 cells at […] after 24 hrs by Western blot analysis relative to control; assay type: cell-based
# MDA-MB-231 [5] = experiment: Antimetastatic activity against human MDA-MB-231 cells assessed as reduction in cell viability at 50 uM after 24 hrs by MTT assay relative to control; assay type: functional
# MDA-MB-231 [6] = experiment: Downregulation of VEGF protein expression in human MDA-MB-231 cells at 3.125 uM after 24 hrs by Western blot analysis relative to control; assay type: functional
# Homo sapiens [7] = organism: Homo sapiens; experiment: Inhibition of ERK phosphorylation in human MDA-MB-231 cells at 6.25 uM after 24 hrs by Western blot analysis relative to control; assay type: cell-based
# [8] = target: RAC-alpha serine/threonine-protein kinase (Homo sapiens) (UniProt P31749); experiment: Inhibition of Akt phosphorylation in human MDA-MB-231 cells at 6.25 uM after 24 hrs by Western blot analysis relative to control; assay type: cell-based
# Chain of RAC-alpha serine/threonine-protein kinase (Homo sapiens) (P31749 whole entry): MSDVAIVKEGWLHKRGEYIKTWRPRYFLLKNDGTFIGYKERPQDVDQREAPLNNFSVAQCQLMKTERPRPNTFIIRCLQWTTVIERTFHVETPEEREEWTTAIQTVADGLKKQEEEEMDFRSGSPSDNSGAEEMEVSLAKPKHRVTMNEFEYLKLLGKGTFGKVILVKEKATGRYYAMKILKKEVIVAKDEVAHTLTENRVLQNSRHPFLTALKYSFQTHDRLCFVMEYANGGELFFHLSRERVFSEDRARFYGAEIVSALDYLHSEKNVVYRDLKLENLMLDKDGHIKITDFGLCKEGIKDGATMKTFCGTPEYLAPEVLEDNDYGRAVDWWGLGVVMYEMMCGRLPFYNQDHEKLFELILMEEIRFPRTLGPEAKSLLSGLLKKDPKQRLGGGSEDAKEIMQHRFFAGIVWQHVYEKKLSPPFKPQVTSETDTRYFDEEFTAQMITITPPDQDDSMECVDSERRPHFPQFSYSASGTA
# [9] = target: RAC-alpha serine/threonine-protein kinase (Homo sapiens) (UniProt P31749); experiment: Inhibition of Akt phosphorylation in human MDA-MB-231 cells at 3.125 uM after 24 hrs by Western blot analysis relative to control; assay type: cell-based
# MDA-MB-231 [10] = experiment: Antimetastatic activity against human MDA-MB-231 cells assessed as reduction in cell viability at 200 uM after 24 hrs by MTT assay relative to control; assay type: functional
# Homo sapiens [11] = organism: Homo sapiens; experiment: Inhibition of ERK phosphorylation in human MDA-MB-231 cells at 3.125 uM after 24 hrs by Western blot analysis relative to control; assay type: cell-based
# MCF7 [12] = experiment: Antimetastatic activity against human MCF7 cells assessed as cell viability at 100 uM after 24 hrs by MTT assay relative to control; assay type: functional; conditions: MCF7, 24 h, read-out: Activity
# MDA-MB-231 [13] = experiment: Antimetastatic activity against human MDA-MB-231 cells assessed as reduction in cell viability at <6.25 uM after 24 hrs by MTT assay; assay type: functional, cell-based
# MCF7 [14] = experiment: Antimetastatic activity against human MCF7 cells assessed as cell viability at 3.125 uM after 24 hrs by MTT assay relative to control; assay type: functional; conditions: MCF7, 24 h, read-out: Activity
# HUVEC [15] = experiment: Cytotoxicity against HUVEC assessed as reduction in cell viability at 100 uM after 24 hrs by MTT assay; assay type: cell-based; conditions: human
# HUVEC [16] = experiment: Cytotoxicity against HUVEC assessed as reduction in cell viability after 24 hrs by MTT assay; assay type: cell-based; conditions: human
# HUVEC [17] = experiment: Cytotoxicity against HUVEC assessed as reduction in cell viability up to 6.25 uM after 24 hrs by MTT assay; assay type: cell-based; conditions: human
# [18] = Cytotoxicity against HUVEC assessed as cell viability at 3.12 uM after 24 hrs by MTT assay; assay type: cell-based; conditions: human, HUVEC cells; read-out: Activity
# MDA-MB-231 [19] = experiment: Decrease in MMP9 mRNA expression in human MDA-MB-231 cells at 3.125 to 6.25 uM after 24 hrs by RT-PCR method; assay type: functional, cell-based
# MDA-MB-231 [20] = experiment: Antimetastatic activity against human MDA-MB-231 cells assessed as cell viability at 3.125 uM after 24 hrs by MTT assay relative to control; assay type: functional; conditions: MDA-MB-231, 24 h, read-out: Activity
# MDA-MB-231 [21] = experiment: Antimetastatic activity against human MDA-MB-231 cells assessed as reduction in cell viability at 100 uM after 24 hrs by MTT assay relative to control; assay type: functional
# HUVEC [22] = experiment: Antiangiogenic activity in HUVEC assessed as inhibition of vascular endothelial tube formation at 3.125 uM after 24 hrs by matrigel assay relative to control; assay type: functional; conditions: Homo sapiens
# HUVEC [23] = experiment: Cytotoxicity against HUVEC assessed as reduction in cell viability at 12.50 to 100 uM after 24 hrs by MTT assay; assay type: cell-based; conditions: human
# MDA-MB-231 [24] = experiment: Downregulation of VEGF protein expression in human MDA-MB-231 cells at 6.25 uM after 24 hrs by Western blot analysis relative to control; assay type: functional
smiles,measurement,setting,value
COc1cc2oc(-c3ccc(O)cc3)cc(=O)c2c(O)c1OC [CIRSIMARITIN],Activity,MDA-MB-231 [1],83.19%
same,inhibition at 6.25 µM,HUVEC [2],32.2%
same,"viability at 24 h, 100 µM",[3],38%
same,inhibition,Homo sapiens [4],43%
same,Activity,MDA-MB-231 [5],78.74%
same,fold change (FC),MDA-MB-231 [6],0.78
same,fold change (FC),Homo sapiens [7],0.57
same,fold change (FC),[8],0.66
same,fold change (FC),[9],0.68
same,Activity,MDA-MB-231 [10],52.73%
same,fold change (FC),Homo sapiens [11],0.8
same,viability at 100 µM,MCF7 [12],53.4%
same,Activity,MDA-MB-231 [13],inactive
same,viability at 3.125 µM,MCF7 [14],81.8%
same,Activity,HUVEC [15],62.04%
same,Activity,HUVEC [16],Dose-dependent effect
same,Activity,HUVEC [17],Non-Toxic
same,"viability at 24 h, 3.12 µM",[18],89.9%
same,Activity,MDA-MB-231 [19],Active
same,viability at 3.125 µM,MDA-MB-231 [20],88.2%
same,Activity,MDA-MB-231 [21],38.56%
same,inhibition at 3.125 µM,HUVEC [22],18.1%
same,Activity,HUVEC [23],Toxic
same,fold change (FC),MDA-MB-231 [24],0.78
COc1cccc2c1C(=O)c1c(O)c3c(c(O)c1C2=O)C[C@@](O)(C(=O)CO)C[C@@H]3O[C@H]1C[C@H](N)[C@H](O)[C@H](C)O1 [DOXORUBICIN],"viability at 24 h, 100 µM",[3],11.7%
same,"viability at 24 h, 3.12 µM",[18],14.2%
